Data taken from ChEMBL document CHEMBL1201862, “PubChem BioAssay data set” (2004).
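Compound exposure: 48 hours, 5 concentrations, 96-well plates. GI50: concentration for 50% inhibition of growth.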 The source made the active and inactive calls. Rule as the data show it: active = GI50 up to about 1.1 µM and inactive = higher.

Tests used:
Test in all cases: NCI tumour cell line growth inhibition, 48 h
[1] = test system: A498
[2] = test system: A549
[3] = test system: HCT-15
[4] = test system: HL-60
[5] = test system: HOP-92
[6] = test system: Hs-578T
[7] = test system: K562
[8] = test system: M14
[9] = test system: MDA-MB-231
[10] = test system: NCI-H226
[11] = test system: NCI-H522
[12] = test system: PC-3
[13] = test system: RPMI-8226
[14] = test system: SF-539
[15] = test system: SK-MEL-5
[16] = test system: SK-OV-3
[17] = test system: SN12C
[18] = test system: UACC-257
[19] = test system: SK-MEL-2

Compound | GI50 [1] | GI50 [2] | GI50 [3] | GI50 [4] | GI50 [5] | GI50 [6] | GI50 [7] | GI50 [8] | GI50 [9] | GI50 [10] | GI50 [11] | GI50 [12] | GI50 [13] | GI50 [14] | GI50 [15] | GI50 [16] | GI50 [17] | GI50 [18] | GI50 [19]
Cc1nc(C)c(N2CCNCC2)c(O)n1 | > 100 µM (inactive) | > 100 µM (inactive) | > 100 µM | > 100 µM (inactive) | > 100 µM (inactive) | > 100 µM (inactive) | > 100 µM (inactive) | > 100 µM (inactive) | > 100 µM (inactive) | > 100 µM (inactive) | > 100 µM (inactive) | > 100 µM (inactive) | > 100 µM (inactive) | > 100 µM (inactive) | > 100 µM (inactive) | > 100 µM (inactive) | > 100 µM (inactive) | > 100 µM (inactive) | –
Cc1nc(Cl)c(Cl)c(Cl)n1 | 2.32 µM (inactive) | 1.49 µM (inactive) | 0.558 µM | 0.0269 µM (active) | 0.238 µM (active) | 0.48 µM (active) | < 0.0113 µM (active) | 0.119 µM (active) | 0.276 µM (active) | 2.59 µM (inactive) | 1.79 µM (inactive) | 0.348 µM (active) | < 0.0398 µM (active) | 1.44 µM (inactive) | 0.705 µM (active) | 3.47 µM (inactive) | 0.284 µM (active) | 0.687 µM (active) | 0.51 µM (active)
O=C1N2CCc3c([nH]c4ccccc34)C23CC2CCCC12S3 (stereo not given) | 33 µM (inactive) | 17.7 µM (inactive) | 18.1 µM | > 50 µM (inactive) | 29 µM (inactive) | 22 µM (inactive) | > 50 µM (inactive) | > 50 µM (inactive) | > 50 µM (inactive) | > 50 µM (inactive) | > 50 µM (inactive) | 24.7 µM (inactive) | 27.4 µM (inactive) | > 50 µM (inactive) | 20.3 µM (inactive) | > 50 µM (inactive) | 20.6 µM (inactive) | 18.2 µM (inactive) | > 50 µM (inactive)
CCCCCC(O)(CCCCC)CCCCCCCCC1=C(O)C(=O)c2ccccc2C1=O | 13.3 µM (inactive) | 9.64 µM (inactive) | 4.18 µM | 3.51 µM (inactive) | 14.6 µM (inactive) | 16.1 µM (inactive) | 3.08 µM (inactive) | 10.8 µM (inactive) | 11.4 µM (inactive) | 14 µM (inactive) | 12.2 µM (inactive) | 7.5 µM (inactive) | 3.38 µM (inactive) | 11.2 µM (inactive) | 3.62 µM (inactive) | 15.6 µM (inactive) | 9.04 µM (inactive) | 12.6 µM (inactive) | 12.1 µM (inactive)
COc1ccc(Cn2c3c(cc(OS(=O)(=O)C(F)(F)F)c2=O)Cc2ccccc2-3)cc1 | > 50 µM (inactive) | 16.5 µM (inactive) | 3.22 µM | 10.7 µM (inactive) | 22.3 µM (inactive) | > 50 µM (inactive) | 21.5 µM (inactive) | 6.65 µM (inactive) | > 50 µM (inactive) | 26.7 µM (inactive) | 22 µM (inactive) | > 50 µM (inactive) | 32.8 µM (inactive) | 10.3 µM (inactive) | 10.4 µM (inactive) | 25.1 µM (inactive) | 16.9 µM (inactive) | 11.9 µM (inactive) | 45.6 µM (inactive)
C=CCN1C[C@@H](C)N([C@@H](c2ccccc2)c2ccc(C(=O)N(CC)CC)cc2)C[C@@H]1C | > 100 µM (inactive) | > 100 µM (inactive) | > 100 µM | > 100 µM (inactive) | 8.43 µM (inactive) | > 100 µM (inactive) | – | > 100 µM (inactive) | > 100 µM (inactive) | 81.7 µM (inactive) | > 100 µM (inactive) | > 100 µM (inactive) | 95.5 µM (inactive) | > 100 µM (inactive) | > 100 µM (inactive) | > 100 µM (inactive) | > 100 µM (inactive) | – | > 100 µM (inactive)
Clc1nncc2sc(-c3ccccc3)nc12 | 40.6 µM (inactive) | 53.8 µM (inactive) | 7 µM | 4.14 µM (inactive) | 5.06 µM (inactive) | 20.6 µM (inactive) | 7.71 µM (inactive) | 17.7 µM (inactive) | 18.6 µM (inactive) | 26 µM (inactive) | 8.73 µM (inactive) | 17.6 µM (inactive) | 35.4 µM (inactive) | 27.5 µM (inactive) | 15.6 µM (inactive) | 28.7 µM (inactive) | 21 µM (inactive) | 18.3 µM (inactive) | 16.4 µM (inactive)
